Consider 12 molecules from publication PMC2848589, “Raltegravir Is a Potent Inhibitor of XMRV, a Virus Implicated in Prostate Cancer and Chronic Fatigue Syndrome” (PLoS ONE, 2010).

The structures appear in SMILES notation. Read-outs that look alike come from different tables or passages of the source. A value given as a limit tells only on which side of the number the result lay.

The subject of data set [1] is HIV-1LAI. The data set is described as follows: HIV-1 replication in PHA-stimulated peripheral blood mononuclear cells. The format is cell-based. To be noted: Human immunodeficiency virus 1, PBMC; for EC50: read-out: HIV-1 in PBM cells EC50; for EC90: read-out: HIV-1 in PBM cells EC90. As for the experimental part: (§1) We tested a total of 45 compounds belonging to different classes of HIV-1 inhibitors, and a few inhibitors of viruses other than retroviruses, for their ability to inhibit XMRV replication in cultured cells. LNCaP and MCF-7 cells were chosen for their ability to support robust in vitro replication of XMRV. […] To determine if a reduction in viral release might be due to toxicity of the compound and not due to specific antiretroviral activity, cellular morphology was monitored every 24 h by microscopic examination, and an MTT [3-(4,5-dimethylthiazol-2-yl)-2,5-diphenyltetrazolium bromide] colorimetric assay was used to measure potential cytotoxicity produced by the compounds. Supernatants were collected every 24 h and assayed for viral release by measuring RT activity. […] For comparison purposes, all compounds evaluated in these studies were also tested against HIV-1LAI in primary human lymphocytes.
(§2) Each well was carefully monitored for signs of cellular toxicity due to the inhibitors by microscopic observation every 24 h. In addition, cell viability was measured using the CellTiter 96 AQueous One Solution cell proliferation assay according to the manufacturer (Promega, Madison, Wis). Viral release from the cells was assayed by measuring RT activity in the supernatant. For this, supernatant from each well was collected every 24 h and frozen at −20°C until it was analyzed by RT assay for viral release as described previously. In brief, oligo(dT)·poly(rA) primer-template assays were performed in the presence of radiolabeled [α-^32P]dTTP and Mn^2+. After incubating the viral supernatants with the RT reaction mix for 1 h at 37°C, samples were spotted onto DE81 DEAE cellulose paper (Whatman) and unincorporated label washed away with 2× SSC (1× SSC = 0.15 M NaCl and 0.015 M sodium citrate). […] Inhibition of viral release as measured on day 6 after inoculation was averaged over 3–5 experiments and plotted. The antiviral EC50 and cytotoxic concentrations (CC50,) was determined from the concentration–response curve using the median effect method. HIV-1 replication assays were performed as described previously using peripheral blood mononuclear cells (PBMC) obtained from the American Red Cross, Atlanta, GA, that were stimulated with phytohemagglutinin (PHA) for 72 hr.

The subject of data set [2] is XMRV. The data set is described as follows: XMRV replication in MCF-7 cells (viral release by RT activity in supernatant). The settings on record: for EC50 / EC90: MCF7, 144 h; for EC50: read-out: XMRV in MCF-7 cells EC50; for EC90: read-out: XMRV in MCF-7 cells EC90; for activity against XMRV (in words): tested up to 100 µM, Figure 1. The format is cell-based.
Data set [3] can be described thus: Cytotoxicity in PBM cells. In kind it is cell-based. To be noted: human, peripheral blood mononuclear (PBM) cells, read-out: HIV-1 in PBM cells CC50. As for the experimental part: as §2
Data set [4] is described as follows: Cytotoxicity in MCF-7 cells (MTT / CellTiter 96 AQueous One). In kind it is cell-based, human. To be noted: human. As for the experimental part: as §1, §2
[5] abbreviates: MCF-7 cells, read-out: XMRV in MCF-7 cells CC50.
Where [6] appears, read: XMRV-infected MCF-7 cells, RT activity in supernatant, day 6.

As to `CC(C)CN(C[C@@H](O)[C@H](Cc1ccccc1)NC(=O)O[C@H]1CO[C@H]2OCC[C@H]21)S(=O)(=O)c1ccc(N)cc1` [Darunavir], in data set [1], the EC50 – broadly, the concentration giving half of the maximal effect – came out at 0.0036 µM and the EC90 (as a rule, the concentration at which the effect reaches the 90% level) was found to be 0.0065 µM. In data set [2], the EC50 was over 100 µM, the EC90 was over 100 µM and the “activity against XMRV (in words)” value is listed as “essentially ineffective”.
With `CC(=O)Oc1ccccc1C(=O)O` [Aspirin], the EC50 in data set [1] and in data set [2] was over 100 µM each time. Moreover, the EC90 in data set [1] and in data set [2] was over 100 µM throughout. In addition, the CC50 (as a rule, the concentration that lowers cell viability or growth by half) is over 100 µM in data set [3] and 92.2 µM in data set [4] (setting [5]).
With `Nc1nc(=O)n([C@@H]2CS[C@H](CO)O2)cc1F` [Emtricitabine [(-)-FTC], Emtricitabine], in data set [1], the EC50 came out at 0.0066 µM and the EC90 stood at 0.052 µM. The CC50 in data set [3] is over 100 µM. Besides, the CC50 in data set [4] was over 100 µM. In data set [2], the EC50 is over 100 µM, the EC90 was over 100 µM and the “activity against XMRV (in words)” value is “essentially inactive”.
As to `CC(C)CN(C[C@@H](O)[C@H](Cc1ccccc1)NC(=O)O[C@H]1CCOC1)S(=O)(=O)c1ccc(N)cc1` [Amprenavir], the values for the EC50 in data set [1] and in data set [2] (setting [6]) were 0.027 µM and 68 µM, respectively. For the same molecule, the figures for the EC90 in data set [1] and in data set [2] were 0.1 µM and over 100 µM, respectively. Moreover, the half-maximal cytotoxic concentration (CC50) is over 100 µM in data set [3] and 94.1 µM in data set [4] (setting [5]).
As to `O=C1Nc2ccc(Cl)cc2[C@@](C#CC2CC2)(C(F)(F)F)O1` [Efavirenz], in data set [1], the EC50 turned out to be 0.00073 µM and the EC90 stood at 0.0027 µM. Moreover, the CC50 in data set [3] is 18.4 µM. Further, the CC50 in data set [4] (setting [5]) is 60.4 µM. Further, in data set [2], the EC50 was determined as 51.6 µM, the EC90 is 93 µM and the “activity against XMRV (in words)” value is “did not demonstrate any major activity”.
`Nc1nc(N)c2ncn([C@H]3CO[C@@H](CO)O3)c2n1` [Amdoxovir (DAPD, AMDX), Amdoxovir]: in data set [1], the EC50 is 0.83 µM and the EC90 is 4.8 µM. Moreover, the 50% cytotoxic concentration (CC50) in data set [3] is over 100 µM. For the same molecule, the CC50 in data set [4] (setting [5]) is over 100 µM. In data set [2], the EC50 is over 100 µM, the EC90 was over 100 µM and the “activity against XMRV (in words)” value was “essentially inactive”.
With `CN(C)c1ccc2nc3ccc(=[N+](C)C)cc-3sc2c1` [Methylene blue], the EC50 in data set [1] was determined as 0.024 µM; in data set [2] it was 0.42 µM. Further, the EC90 in data set [1] was 0.5 µM; in data set [2], 2.7 µM. The results for the CC50 in data set [3] and in data set [4] were 6.1 µM and 7.2 µM, respectively.
For `COC(=O)N[C@H](C(=O)N[C@@H](Cc1ccccc1)[C@@H](O)CN(Cc1ccc(-c2ccccn2)cc1)NC(=O)[C@@H](NC(=O)OC)C(C)(C)C)C(C)(C)C` [Atazanavir], the EC50 in data set [1] stood at 0.0067 µM; in data set [2] (setting [6]), 64.8 µM. The EC90 is 0.022 µM in data set [1] and over 100 µM in data set [2]. Besides, the figures for the CC50 in data set [3] and in data set [4] (setting [5]) were 27.2 µM and 40.7 µM, respectively.
`CC(O)(CS(=O)(=O)c1ccc(F)cc1)C(=O)Nc1ccc(C#N)c(C(F)(F)F)c1` (centres unmarked) [Bicalutamide] displayed a CC50 in data set [4] of 8.2 µM. In data set [2], the EC50 was 53 µM and the EC90 came to 63.2 µM.
For the molecule `CCN(CC)CCCC(C)Nc1ccnc2cc(Cl)ccc12` (centres unmarked) [Chloroquine], in data set [1], the EC50 amounted to 9 µM and the EC90 was 21.6 µM. For the same molecule, in data set [2], the EC50 came out at 56.9 µM and the EC90 was over 100 µM.
For the molecule `CC(C)c1nc(CN(C)C(=O)N[C@H](C(=O)N[C@@H](Cc2ccccc2)C[C@H](O)[C@H](Cc2ccccc2)NC(=O)OCc2cncs2)C(C)C)cs1` [Ritonavir], the EC50 in data set [1] was determined as 0.15 µM; in data set [2] (setting [6]), 76.4 µM. Besides, the figures for the EC90 in data set [1] and in data set [2] were 0.4 µM and over 100 µM, respectively.
As for `CC(C)=CCN1Cc2c(Cl)ccc3[nH]c(=S)n(c23)C[C@@H]1C` [TIBO analog, (4S)-8-Chloro-4-methyl-5-(3-methylbut-2-enyl)-3,4,5,6-tetrahydro-1H-[1], [3]diazepino[4,5,6-cd]indole-2(2aH)-thione], in data set [2], the “activity against XMRV (in words)” value is on record as “did not demonstrate any major activity”.
